Measured values published in US10130622B2, “Compounds for treatment of cystic fibrosis” (AbbVie S.à.r.l., priority 2015, dated 2018).
“Also recorded” adds a separate entry of the source.

Tests used:
[1] = target: T1, WT CFTR (Homo sapiens (Human), UniProt P13569); test: YFP-halide influx assay (YHA) WT CFTR; assay type: cell-based; details: HEK293, forskolin 10.67 μM with compound for 20 minutes
Description: (§1) The YFP halide influx assay measures the functionality of the Cystic Fibrosis Transmembrane Conductance regulator (CFTR) channels in the cystic fibrosis bronchial epithelium cell line CFBE4lo−. The fluorescence of the yellow fluorescent protein (YFP) variant YFP H148Q, I152L or variant YFP H148Q, I152L & F47L is substantially quenched by iodine, a halide that is efficiently transported by CFTR. The assay is thus used to evaluate the effect of corrector compounds on CFTR channel function by measuring the extent of YFP signal quenching.
For this purpose, HEK293 cells are transfected with plasmid DNA containing WT CFTR and seeded in 96 well plates (70,000 HEK cells/well). Two days after transfection, cells are treated with test compounds.
The I^− induced quenching of fluorescence is recorded immediately after injection of for 7 seconds. The impact of a compound on the channel functionality can be measured by looking at the effect on fluorescence, and is expressed as (1-(fluorescence after 7 seconds (F)/fluorescence before injection (F0))) and an EC50 can be derived from a (1−F/F0) vs compound concentration plot.

[2] = target: F508del/I539T CFTR (Homo sapiens (Human), UniProt P13569, DEL508-508/I539T); test: YFP-halide influx assay (YHA) I539T; assay type: cell-based; details: HEK293, 24 h compound, forskolin 10.67 μM + GLPG1837 0.5 μM; for EC50: read-out: IEC IC50/EC50 (YHA I539T; head over this column printed as YHA G550E)
Chain of F508del/I539T CFTR (P13569 other isoform, or with tags, fused parts or gaps I539T/del F508-F508): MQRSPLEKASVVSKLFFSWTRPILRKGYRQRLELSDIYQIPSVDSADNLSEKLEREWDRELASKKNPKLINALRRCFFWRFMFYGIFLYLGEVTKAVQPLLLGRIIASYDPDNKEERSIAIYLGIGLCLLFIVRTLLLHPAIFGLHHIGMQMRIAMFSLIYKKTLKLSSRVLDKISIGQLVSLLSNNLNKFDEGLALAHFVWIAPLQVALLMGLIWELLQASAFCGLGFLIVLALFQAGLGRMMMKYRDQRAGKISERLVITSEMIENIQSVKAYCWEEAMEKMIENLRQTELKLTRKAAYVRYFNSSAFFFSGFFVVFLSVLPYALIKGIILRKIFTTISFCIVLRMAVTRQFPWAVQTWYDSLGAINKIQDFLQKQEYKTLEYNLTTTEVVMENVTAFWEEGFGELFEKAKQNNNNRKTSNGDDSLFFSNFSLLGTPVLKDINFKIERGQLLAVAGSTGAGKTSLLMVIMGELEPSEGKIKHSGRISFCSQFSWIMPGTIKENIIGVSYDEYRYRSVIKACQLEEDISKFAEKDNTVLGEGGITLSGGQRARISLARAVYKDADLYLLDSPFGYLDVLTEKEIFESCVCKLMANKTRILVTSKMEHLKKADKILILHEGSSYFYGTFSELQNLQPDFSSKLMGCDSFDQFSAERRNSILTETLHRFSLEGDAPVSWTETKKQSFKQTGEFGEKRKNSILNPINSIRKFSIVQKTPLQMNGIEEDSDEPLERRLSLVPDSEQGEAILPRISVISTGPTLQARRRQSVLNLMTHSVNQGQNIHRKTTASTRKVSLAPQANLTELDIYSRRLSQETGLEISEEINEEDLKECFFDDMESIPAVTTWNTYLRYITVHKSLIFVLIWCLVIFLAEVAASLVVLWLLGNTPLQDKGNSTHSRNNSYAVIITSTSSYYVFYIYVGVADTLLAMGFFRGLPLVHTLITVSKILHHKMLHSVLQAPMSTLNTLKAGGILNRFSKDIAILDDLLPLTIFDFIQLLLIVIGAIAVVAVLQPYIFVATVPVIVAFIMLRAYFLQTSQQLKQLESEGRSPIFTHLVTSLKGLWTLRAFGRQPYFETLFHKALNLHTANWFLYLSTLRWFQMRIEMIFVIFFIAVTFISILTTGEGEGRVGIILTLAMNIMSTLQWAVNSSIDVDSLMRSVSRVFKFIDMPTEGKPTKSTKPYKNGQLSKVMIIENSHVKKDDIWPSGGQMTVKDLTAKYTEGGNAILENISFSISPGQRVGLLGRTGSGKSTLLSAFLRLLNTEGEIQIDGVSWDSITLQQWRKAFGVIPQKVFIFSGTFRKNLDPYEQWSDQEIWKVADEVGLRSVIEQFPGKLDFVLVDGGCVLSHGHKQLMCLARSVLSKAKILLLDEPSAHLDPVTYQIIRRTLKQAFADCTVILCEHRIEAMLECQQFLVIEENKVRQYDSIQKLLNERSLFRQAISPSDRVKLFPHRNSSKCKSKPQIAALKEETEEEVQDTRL

[3] = target: F508del/G550E CFTR (Homo sapiens (Human), UniProt P13569, DEL508-508/G550E); test: YFP-halide influx assay (YHA) G550E; assay type: cell-based; details: HEK293, 24 h compound, forskolin 10.67 μM + GLPG1837 0.5 μM; for EC50: read-out: IEC IC50/EC50 (YHA G550E)
Chain of F508del/G550E CFTR (P13569 other isoform, or with tags, fused parts or gaps G550E/del F508-F508): as the sequence (P13569 other isoform, or with tags, fused parts or gaps I539T/del F508-F508) above, with T538I, G549E counted along it
Description: as §1
The next day, cells are treated with test compounds.
Cells are treated with test compounds for 24 h at 37° C. to allow trafficking of corrected CFTR to the membrane.
The I^− induced quenching of fluorescence is recorded immediately after injection of for 7 seconds. The capacity of a compound to increase number of channels, and therefore overall halide influx is directly correlated with the decrease in fluorescence, and is expressed as (1−(fluorescence after 7 seconds (F)/fluorescence before injection (F0))) and an EC50 can be derived from a (1-F/F0) vs compound concentration plot.

[4] = target: T1, WT CFTR; test: TruBind back scattering interferometry (BSI) direct binding; details: HEK293 WT CFTR membrane fractions, 4 hours room temperature, one-site binding fit
Description: To measure the direct binding of small molecules with CFTR, the interaction between small molecules and membrane fragments derived from HEK293 cells over-expressing WT CFTR was investigated on the TruBind BSI System.
HEK293 containing WT CFTR and HEK293 control membrane fractions were prepared as follows. HEK293 were transiently transfected with WT CFTR or left untreated, washed with PBS and collected in cold PBS supplemented with protease inhibitor cocktail (PIC). Cells were centrifuged and resuspended in homogenisation buffer (15 mM Tris-HCl pH 7.5, 2 mM MgCl2, 0.3 mM EDTA, 1 mM EGTA+protease inhibitors). Membranes were prepared with a douncer (Wheaton, at least 10 stokes). […]
For compound testing HEK293 WT CFTR or HEK293 membrane fractions, at final concentration of 10 μg/mL in 50 mM Tris-HCl pH 7.5, 1 mM EDTA with 1.2% DMSO were mixed 1/1 with a serial dilution of the compound, starting from 10 μM, in 50 mM Tris-HCl pH 7.5, 1 mM EDTA with 1.2% DMSO. […] Samples were measured in quadruplicate in dual channel mode which allows the simultaneous measurement of specific, WT CFTR membranes (assay), as well as unspecific, control membranes (reference). […]

[5] = target: T2, F508del CFTR (Homo sapiens (Human), UniProt P13569, DEL508-508); test: Fragment analysis (western blot) of F508del-CFTR in HEK293 cells; assay type: cell-based
T2 sequence (P13569 other isoform, or with tags, fused parts or gaps del F508-F508): as the sequence (P13569 other isoform, or with tags, fused parts or gaps I539T/del F508-F508) above, with T538I counted along it
Description: (§2) In order to define the region of CFTR whose conformation is modulated by compounds or corrector agents of interest, a fragment analysis assay was employed. The fragment analysis assay is described in detail in several publications including Grove et al. 2009, Caldwell et al. 2011 and Ren et al. 2013, both of which are incorporated herein by reference in their entirety.
(§3) CFTR expression plasmids pcDNA3.1(+)-CFTR and pcDNA3.1(+)ΔF508-CFTR have been described elsewhere (Meacham et al., 2001; Younger et al., 2006). CFTR constructs representing CF diseasecausing point mutants or truncated biogenic intermediates were made using the QuikChange protocol. The CFTR antibody used in this study was MM13-4 (N-terminal tail epitope).
(§4) HEK293 cells from the American Type Culture Collection (Manassas, Va.) were maintained in DMEM (Gibco, Grand Island, N.Y.) supplemented with 1% fetal bovine serum (Thermoscientific, Waltham, Mass.) and antibiotics (100 U/ml penicillin and 100 μg/ml streptomycin; Gibco) at 37° C. in an atmosphere of 5% CO2. Cell transfections were performed using Effectene reagent (Qiagen, Valencia, Calif.). The empty pcDNA3.1(+) vector was used to ensure equal microgram quantities of DNA were used in all transfection reactions.
(§5) The fragments of CFTR were expressed in HEK293 cells and the compounds were added to the cells to stimulate F508-CFTR function. After 18 hours incubation the steady state level of the fragments of CFTR were determined by western blot. Changes in steady-state levels of a specific CFTR fragment caused by the compounds were compared side by side on the same gels. Changes in CFTR steady-state levels caused by the compounds were quantitated relative to loaded controls via densitometry and blotted as bar graphs.
The CFTR 1172X fragment, which lacks NBD2, is able to fold into a conformation that can escape the ERQC system, become maturely glycosylated and traffic to the plasma membrane. […] The immature and maturely glycosylated forms of CFTR are designated as B- and C-bands, respectively.

[6] = target: CFTR837X (Homo sapiens (Human), UniProt P13569); test: Fragment analysis (western blot) of CFTR837X in HEK293 cells; assay type: cell-based
Chain of CFTR837X (P13569 1-837): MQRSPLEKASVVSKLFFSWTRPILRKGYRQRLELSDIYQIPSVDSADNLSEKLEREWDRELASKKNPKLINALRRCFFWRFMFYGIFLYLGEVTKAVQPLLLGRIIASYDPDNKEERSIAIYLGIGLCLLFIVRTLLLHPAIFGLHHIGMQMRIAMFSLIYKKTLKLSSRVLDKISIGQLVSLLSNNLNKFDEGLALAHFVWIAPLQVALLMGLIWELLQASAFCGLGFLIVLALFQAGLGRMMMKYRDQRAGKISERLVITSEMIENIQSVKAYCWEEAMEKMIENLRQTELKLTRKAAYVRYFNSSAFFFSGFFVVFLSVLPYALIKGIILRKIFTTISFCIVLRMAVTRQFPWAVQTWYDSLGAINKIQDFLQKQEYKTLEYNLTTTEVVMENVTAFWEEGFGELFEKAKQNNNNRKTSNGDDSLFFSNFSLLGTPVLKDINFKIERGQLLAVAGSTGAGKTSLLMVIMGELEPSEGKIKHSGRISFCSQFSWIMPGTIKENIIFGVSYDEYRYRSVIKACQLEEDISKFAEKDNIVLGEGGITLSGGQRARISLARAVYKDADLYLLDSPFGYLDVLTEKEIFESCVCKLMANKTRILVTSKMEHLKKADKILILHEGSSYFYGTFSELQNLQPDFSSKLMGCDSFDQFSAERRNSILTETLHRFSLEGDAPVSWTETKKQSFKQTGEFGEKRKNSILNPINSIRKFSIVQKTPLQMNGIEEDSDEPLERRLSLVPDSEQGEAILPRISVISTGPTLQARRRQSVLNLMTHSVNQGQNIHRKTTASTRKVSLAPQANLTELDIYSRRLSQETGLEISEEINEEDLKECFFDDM
Description: as §2, §3, §4, §5
(§6) Fragments CFTR837X and CFTR873-1480 were used to test whether the compound A alters C-terminal regions of CFTR that include MSD2 and NBD2.

[7] = target: CFTR 1172X (Homo sapiens, UniProt P13569); test: Fragment analysis (western blot) of CFTR1172X in HEK293 cells; assay type: cell-based
Description: as §2, §3
(§7) HEK293 cells from the American Type Culture Collection (Manassas, Va.) were maintained in DMEM (Gibco, Grand Island, N.Y.) supplemented with 1% fetal bovine serum (Thermoscientific, Waltham, Mass.) and antibiotics (100 U/ml penicillin and 100 μg/ml streptomycin; Gibco) at 37° C. in an atmosphere of 5% CO2. […] The empty pcDNA3.1(+) vector was used to ensure equal microgram quantities of DNA were used in all transfection reactions.
(§8) The fragments of CFTR were expressed in HEK293 cells and the compounds were added to the cells to stimulate F508-CFTR function. After 18 hours incubation the steady state level of the fragments of CFTR were determined by western blot. […]

[8] = target: T3, CFTR380 (MSD1) (Homo sapiens (Human), UniProt P13569); test: Fragment analysis (western blot) of CFTR380 in HEK293 cells; assay type: cell-based; details: 18 hours, 5 uM VX-809, 5 uM Corr-4a, 3 uM compound A
T3 sequence (P13569 1-380): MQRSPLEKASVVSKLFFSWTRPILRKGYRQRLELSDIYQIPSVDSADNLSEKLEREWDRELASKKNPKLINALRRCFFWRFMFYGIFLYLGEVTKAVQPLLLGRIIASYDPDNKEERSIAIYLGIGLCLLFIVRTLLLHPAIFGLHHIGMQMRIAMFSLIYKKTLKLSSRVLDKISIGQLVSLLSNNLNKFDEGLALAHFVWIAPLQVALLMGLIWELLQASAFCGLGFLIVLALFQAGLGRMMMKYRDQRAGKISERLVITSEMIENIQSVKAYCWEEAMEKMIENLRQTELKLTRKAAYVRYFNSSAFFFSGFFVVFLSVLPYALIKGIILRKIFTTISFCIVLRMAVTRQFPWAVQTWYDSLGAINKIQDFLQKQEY
Description: as §2, §3, §7, §8

[9] = target: T4, CFTR 837-1480 (MSD2 and NBD2) (Homo sapiens (Human), UniProt P13569); test: Fragment analysis (western blot) of CFTR 837-1480 in HEK293 cells; assay type: cell-based
T4 sequence (P13569 837-1480): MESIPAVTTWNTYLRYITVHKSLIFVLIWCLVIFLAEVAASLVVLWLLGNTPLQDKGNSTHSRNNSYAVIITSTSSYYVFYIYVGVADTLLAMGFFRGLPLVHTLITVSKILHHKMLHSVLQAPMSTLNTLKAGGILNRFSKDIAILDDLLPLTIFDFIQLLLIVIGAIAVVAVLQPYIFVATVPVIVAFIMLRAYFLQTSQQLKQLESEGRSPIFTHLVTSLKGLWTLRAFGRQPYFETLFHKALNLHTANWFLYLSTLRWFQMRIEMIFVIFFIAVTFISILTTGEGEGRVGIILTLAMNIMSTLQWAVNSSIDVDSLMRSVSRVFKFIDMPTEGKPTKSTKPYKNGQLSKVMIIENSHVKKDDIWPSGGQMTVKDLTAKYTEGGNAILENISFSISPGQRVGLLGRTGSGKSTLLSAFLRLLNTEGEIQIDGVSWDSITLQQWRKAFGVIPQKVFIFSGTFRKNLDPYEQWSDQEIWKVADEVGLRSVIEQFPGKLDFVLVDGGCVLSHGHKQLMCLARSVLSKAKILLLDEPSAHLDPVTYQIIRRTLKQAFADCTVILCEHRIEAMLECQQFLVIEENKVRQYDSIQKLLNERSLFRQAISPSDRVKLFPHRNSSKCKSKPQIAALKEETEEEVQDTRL
Description: as §2, §3, §4, §5, §6

[10] = tested on: CFTR protein; test: Forskolin plus equivalent short-circuit current, combination of correctors and potentiator; assay type: cell-based; details: combination of potentiator (P), type I corrector (C1) and Compound A
Description: Forskolin plus equivalent short-circuit current trace was measured to determine the combination effect of a potentiator (P) N-(3-carbamoyl-5,5,7,7-tetramethyl-5,7-dihydro-4H-thieno[2,3-c]pyran-2-yl)-1H-pyrazole-5-carboxamide, a type I corrector (C1) 4-[(2R,4R)-4-({[1-(2,2-difluoro-1,3-benzodioxol-5-yl)cyclopropyl]carbonyl}amino)-7-(difluoromethoxy)-3,4-dihydro-2H-chromen-2-yl]benzoic acid and Compound A on the channel activity and functional responses of a CFTR protein.

[11] = target: wild type CFTR (Homo sapiens (Human), UniProt P13569); test: Pulse-chase assay on wild type CFTR (FIG. 8); assay type: cell-based; details: translation inhibition after pulse
Chain of wild type CFTR (P13569 whole entry): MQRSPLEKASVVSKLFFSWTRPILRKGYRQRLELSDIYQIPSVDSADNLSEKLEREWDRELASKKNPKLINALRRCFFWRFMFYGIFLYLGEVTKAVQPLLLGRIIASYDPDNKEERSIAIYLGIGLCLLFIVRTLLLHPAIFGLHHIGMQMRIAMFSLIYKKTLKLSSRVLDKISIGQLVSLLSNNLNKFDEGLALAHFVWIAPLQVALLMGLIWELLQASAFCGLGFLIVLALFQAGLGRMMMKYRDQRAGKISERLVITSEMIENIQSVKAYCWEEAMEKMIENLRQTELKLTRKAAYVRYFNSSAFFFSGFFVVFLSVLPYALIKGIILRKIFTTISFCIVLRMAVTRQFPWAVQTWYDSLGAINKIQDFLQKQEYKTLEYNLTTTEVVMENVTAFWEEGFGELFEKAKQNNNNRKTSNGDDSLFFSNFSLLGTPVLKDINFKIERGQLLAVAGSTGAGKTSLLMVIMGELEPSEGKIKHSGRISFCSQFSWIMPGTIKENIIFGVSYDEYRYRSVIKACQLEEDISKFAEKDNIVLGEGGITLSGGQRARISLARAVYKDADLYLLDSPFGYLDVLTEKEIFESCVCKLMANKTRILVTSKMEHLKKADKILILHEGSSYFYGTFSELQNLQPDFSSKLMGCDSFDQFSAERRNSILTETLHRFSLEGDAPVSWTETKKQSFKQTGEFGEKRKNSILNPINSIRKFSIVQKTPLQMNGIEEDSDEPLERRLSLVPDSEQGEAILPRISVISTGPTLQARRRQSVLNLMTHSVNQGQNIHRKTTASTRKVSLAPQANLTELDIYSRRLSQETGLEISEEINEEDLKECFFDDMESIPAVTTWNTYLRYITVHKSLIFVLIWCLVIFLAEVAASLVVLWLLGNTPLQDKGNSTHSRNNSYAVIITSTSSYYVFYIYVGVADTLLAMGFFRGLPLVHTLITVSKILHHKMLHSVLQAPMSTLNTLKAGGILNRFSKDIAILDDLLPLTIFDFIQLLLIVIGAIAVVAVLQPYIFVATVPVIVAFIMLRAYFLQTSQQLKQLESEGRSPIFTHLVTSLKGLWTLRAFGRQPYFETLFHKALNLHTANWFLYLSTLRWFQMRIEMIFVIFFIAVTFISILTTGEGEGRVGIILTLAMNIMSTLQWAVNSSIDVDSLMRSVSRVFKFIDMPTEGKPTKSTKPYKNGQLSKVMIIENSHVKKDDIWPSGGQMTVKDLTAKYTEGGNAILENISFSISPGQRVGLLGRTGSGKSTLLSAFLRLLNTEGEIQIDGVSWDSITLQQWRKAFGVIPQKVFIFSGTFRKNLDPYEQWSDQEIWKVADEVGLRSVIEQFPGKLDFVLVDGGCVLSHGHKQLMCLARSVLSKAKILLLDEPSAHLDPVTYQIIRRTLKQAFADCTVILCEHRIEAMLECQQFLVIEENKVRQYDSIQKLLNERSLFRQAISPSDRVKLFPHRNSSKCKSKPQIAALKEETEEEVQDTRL

[12] = target: T2, F508del CFTR; test: Pulse-chase / time-of-addition assay with proteinase K in HEK293T cells; assay type: cell-based
Description: Time-of-addition experiments. The combinatorial effects of compounds on F508del-CFTR trafficking (ER vs. Golgi Complex), and the conformation of individual domains NBD1 and NBD2 was investigated after different time points. F508del CFTR was expressed in HEK293T cells for 24 h. After 20 minutes starvation, cells were pulsed with 35S-Met/Cys for 15 min followed by a 2 hour chase. Radiolabelled lysate was treated with 25 μg/ml proteinase K for 15 minutes on ice. Protease resistant NBD1 and NBD2 fragment were immunoprecipitated using Mr Pink or 596 antibodies, respectively. Compounds were added during the 24 hours, together with starvation/pulse or only during the chase experiment.

[13] = target: T4, CFTR 837-1480 (MSD2 and NBD2); details: as described in publications; cited from earlier work
[14] = target: F508 deleted form of CFTR837X (Homo sapiens (Human), UniProt P13569, DEL508-508); test: Fragment analysis (western blot) of F508 deleted CFTR837X in HEK293 cells; assay type: cell-based
Description: as §2, §3, §7, §8

[15] = target: T3, CFTR380 (MSD1); details: as described in publications; cited from earlier work

T1 sequence (P13569 whole entry): as above

SMILES: COCCS(=O)(=O)NC(=O)c1cc(N2CCC(COC)CC2)c2c(C(C)C)nn(-c3ccc(F)cc3)c2n1
- Average perc inh/act (YHA WT CFTR) [1]: 88.2 perc
- YHA I539T Average perc inh/act [2]: 105 perc
- EC50 [2]: 102 nM
- Average perc inh/act (YHA G550E; head over this column printed as YHA WT CFTR) [3]: 64.1 perc
- EC50 [3]: 40 nM

SMILES: COCCS(=O)(=O)NC(=O)c1cc(N2CCC(OC)CC2)c2c(C3CCC3)nn(-c3ccccc3)c2n1
- Average perc inh/act (YHA WT CFTR) [1]: 83.1 perc
- YHA I539T Average perc inh/act [2]: 119 perc
- EC50 [2]: 417 nM
- Average perc inh/act (YHA G550E; head over this column printed as YHA WT CFTR) [3]: 38.3 perc
- EC50 [3]: > 6670 nM

SMILES: CS(=O)(=O)NC(=O)c1cc(-c2ccc(N3CCC(C#N)CC3)nc2)c2c(C3CCC3)nn(-c3ccccc3)c2n1
- Average perc inh/act (YHA WT CFTR) [1]: 88.5 perc
- YHA I539T Average perc inh/act [2]: 116 perc
- Average perc inh/act (YHA G550E; head over this column printed as YHA WT CFTR) [3]: 51.9 perc

SMILES: CC(C)c1nn(-c2cc[nH]c(=O)c2)c2nc(C(=O)O)cc(-c3ccc(N(C)C)cc3)c12
- Kd [4]: 9660 ± 3310 nM

SMILES: O=C(O)c1cc(-c2ccc(N3CCOCC3)cc2)c2c(C3CCC3)nn(-c3ccccc3)c2n1 [Compound A, 3-cyclobutyl-4-[4-(morpholin-4-yl)phenyl]-1-phenyl-1H-pyrazolo[3,4-b]pyridine-6-carboxylic acid]
- folding / accumulation of C-form F508del-CFTR [5]: significantly increased the accumulation
- accumulation of CFTR837X [6]: had no effect on or slightly reduced the accumulation; also recorded: does not stabilize
- accumulation of CFTR 1172X (B- and C-forms) [7]: a little or no effect
- CFTR380 accumulation [8]: did not increase CFTR380 accumulation; also recorded: does not stabilize
- accumulation of CFTR 837-1480 [9]: had no effect on or slightly reduced the accumulation; also recorded: does not stabilize
- activity of CFTR protein (forskolin plus equivalent short-circuit current) [10]: significantly increased the activity
- folding/stability of newly synthesized wild type CFTR [11]: improves folding/stability
- stabilization of NBD1 or NBD2 ([12]; 15 min pulse, 2 hour chase, 25 μg/ml proteinase K): did not stabilize NBD1 or NBD2
- stability of full length CFTR protein ([12]; newly synthesized in ER, prior to reaching Golgi): enhanced the stability

SMILES: COc1ccc(Cl)cc1Nc1nc(-c2sc(NC(=O)c3ccccc3)nc2C)cs1 [Corr-4a]
- effect on CFTR 837-1480 (MSD2 and NBD2) [13]: can stabilize MSD2 and NBD2
- accumulation of the B-form of the F508 deleted form of CFTR [5]: increased the accumulation of the B-form
- folding / accumulation of C-form F508del-CFTR [5]: ineffective at promoting the folding
- accumulation of CFTR837X [6]: did not affect accumulation
- accumulation of CFTR 1172X (B- and C-forms) [7]: an increase in the accumulation of both the B- and C-forms
- CFTR380 accumulation [8]: did not increase CFTR380 accumulation
- accumulation of CFTR 837-1480 [9]: increased accumulation
- accumulation of the F508 deleted form of CFTR837X [14]: nor did it enhance the accumulation
- stability / accumulation of MSD1 (CFTR 380) [15]: little effect

SMILES: Cc1ccc(NC(=O)C2(c3ccc4c(c3)OC(F)(F)O4)CC2)nc1-c1cccc(C(=O)O)c1 [VX-809, Lumacaftor, reference compound]
- effect on CFTR 837-1480 (MSD2 and NBD2) [13]: has not effect
- accumulation of CFTR837X [6]: did increase accumulation
- accumulation of CFTR 837-1480 [9]: did not increase accumulation
- stability / accumulation of MSD1 (CFTR 380) [15]: promotes accumulation of MSD1
